“Also recorded” adds a separate entry of the source.

The test system of test [1] is IL-1β secretion in human peripheral blood mononuclear cells (PBMCs). Description: Suppressive efficacy against LPS-induced IL-1β secretion in human-derived PBMC. The test is classed as cell-based. The conditions noted are these: FIG. 2. The procedure: The inhibitory effects of nivocasan on inflammasome activation in human peripheral blood mononuclear cells (PBMCs) were evaluated by measuring LPS-induced IL-1β secretion. Freshly isolated PBMCs were plated at 2.5×10^5 cells/well (24-well plate) in RPMI-1640 media and treated with nivocasan or DMSO for 30 minutes, followed by incubation with 100 ng/ml LPS for 24 hours to induce inflammation. Levels of IL-1β in PBMC supernatants was measured by ELISA (R&D Systems Quantikine human IL-1β; detection limit: 7.8 pg/ml), and the results are represented in FIG. 2.

Test [2] deals with beagle dog model of osteoarthritis. Description: MRI evaluation of effect on joint structure in animal model of osteoarthritis. The format is in vivo. The conditions noted are these: MRI before vs 3 months after single intra-articular administration; FIG. 6. As to the method: In a beagle dog model of osteoarthritis induced by daily forced exercise after surgical anterior cruciate ligament transection with medial meniscectomy, the effect on joint structure was evaluated by taking an MRI (SIGNA Pioneer 3.0T MR, GE Healthcare Co., USA) of the joint before a single intra-articular administration and 3 months thereafter.

Test [3] deals with IL-1β secretion in THP-1 cells. Description: Suppressive efficacy against LPS/nigericin-induced IL-1β secretion in THP-1 cells. The format is cell-based, human. To be noted: PMA-differentiated, LPS 100 ng/ml 24 h, compound 30 min, then 5 μM nigericin & 1 mM ATP 1 h, ELISA, FIG. 1. As to the method:
To evaluate the inflammation blocking effects of nivocasan, IL-1β secretion was measured in THP-1 cells under conditions in which inflammation was induced by lipopolysaccharide (LPS)/nigericin treatment. The day before LPS treatment, THP-1 cells were plated at 2.5×10^5 cells/well (24-well plate) in RPMI-1640 media and treated with 0.5 μM phorbol 12-myristate 13-acetate (PMA) for macrophage differentiation during overnight culture. The media was then changed with Opti-MEM media and the cells were incubated with LPS 100 ng/ml (the first inflammation signal for […] up-regulation) for 24 hours. The cells were then washed with PBS twice and treated with nivocasan or DMSO for 30 minutes in Opti-MEM media, followed by incubation with 5 μM nigericin & 1 mM ATP for 1 hour to activate inflammasome (NLRP3 activation and IL-1β secretion). Secreted IL-1β was measured from cell media by using R&D Systems Quantikine human IL-1β (detection limit: 7.8 pg/ml), and the results are represented in FIG. 1.
A general note: ELISA stands for enzyme-linked immunosorbent assay.

The subject of test [4] is osteoarthritis-induced beagle dogs. Put plainly: Efficacy on improving walking ability (lameness score) in animal model of osteoarthritis. The format is in vivo. The procedure: Beagle dogs were purchased from Orient Bio, and healthy animals were used for the experiment after a one-week quarantine cycle. After 1 week of recovery after surgical anterior cruciate ligament transection with medial meniscectomy, forced exercise for 30 minutes every day was carried out to induce osteoarthritis. The surgery for inducing osteoarthritis was performed under anesthesia after the animals were depilated on both knees. After broad disinfection of the incision site with povidone and 70% ethanol, the skin of the right knee was incised. By blunt dissection of the surrounding tissues, the articular surface of the distal end of femur was exposed. An instrument portal was created on the medial articular surface, and the meniscus and anterior cruciate ligament were excised. Wound closure was performed by the use of 4-0 nylon suture. […] The assessment about walking ability for evaluating the pain status and functional level of osteoarthritis animals was carried out according to the method proposed by Pashuck et al. (Troy D. Pashuck et al., J Orthop Res, 2016, 34(10): 1772-1779), and the lameness score as represented in Table 1 was recorded until the end of the experiment. […] The efficacy of nivocasan in an animal model of osteoarthritis was measured by evaluating the lameness score twice a week after a single intra-articular administration. […]

The subject of test [5] is beagle dog model of osteoarthritis. Put plainly: Histopathological evaluation of effect on joint in animal model of osteoarthritis. The test is classed as in vivo. The procedure:
In a beagle dog model of osteoarthritis induced by daily forced exercise after surgical anterior cruciate ligament transection with medial meniscectomy, an autopsy was performed 3 months after a single intra-articular administration, and the joint was collected and fixed. The fixed tissue was subjected to conventional tissue processing such as demineralization, trimming, dehydration, paraffin embedding, sectioning and the like to prepare a specimen for histopathological examination, followed by hematoxylin eosin and safranin-o staining. An optical microscopy (Olympus BX53, Japan) was used to observe histopathological changes.
Histopathological evaluation was performed by comparing between groups with scoring as shown in Tables 3 to 8 according to the method proposed by Cook et al. (Cook et al., Osteoarthritis Cartilage. 2010; 18 Suppl 3:S66-S79), and the results are represented in FIG. 7.

Test [6] has as its system human chondrocytes. Description: Protective effect on TNF-α-induced apoptosis in human-derived chondrocytes. To be noted: human normal chondrocytes, compound 30 min, then 10 ng/ml TNF-α and 1 μg/ml actinomycin D 18 h; Cell Death Detection ELISA; FIG. 3. The format is cell-based. As to the method:
The protective effect of nivocasan on TNF-α-induced apoptosis was evaluated in human chondrocytes. Human normal chondrocytes were plated at 1×10^5 cells/well (collagen-coated 24-well plate) in chondrocyte media (Prigrow IV Medium, Applied Biological Materials Inc.) and incubated overnight. The cells were treated with nivocasan or DMSO for 30 minutes, followed by incubation with 10 ng/ml human recombinant TNF-α and 1 μg/ml actinomycin D for 18 hours to induce apoptosis. Apoptosis was measured by using Cell Death Detection ELISA kit, and the results are represented in FIG. 3.

Turning to `CC(C)[C@@]1(C(=O)N[C@H]2CC(=O)O[C@]2(O)CF)CC(c2nccc3ccccc23)=NO1` [nivocasan, (R)—N-((2S,3S)-2-(fluoromethyl)-2-hydroxy-5-oxotetrahydrofuran-3-yl]-5-isopropyl-3-(isoquinolin-1-yl)-4,5-dihydroisoxazole-5-carboxamide], in test [1] (100 ng/ml LPS 24 h), the “concentration showing maximum effect on LPS-induced IL-1β secretion” value turned out to be 0.3 µM. Also, the “suppression of LPS-induced IL-1β secretion” value in test [1] (compound 30 min, then 100 ng/ml LPS 24 h, ELISA) is recorded as “suppressed LPS-induced IL-1β secretion from PBMCs in a dose dependent manner”. For the same compound, in test [2], the “bone marrow lesion (MRI score)” value was “improvement” and the “synovitis (MRI score)” value was “improvement”. For the same compound, the “suppression of LPS/nigericin-induced IL-1β secretion” value in test [3] was “suppressed LPS/nigericin-induced IL-1β secretion in THP-1 cells in a dose-dependent manner”. Besides, the “improvement of walking ability (lameness score)” value in test [4] (single intra-articular administration 0.1, 0.3, 1, 3 and 10 mg/knee, scored twice a week for 3 months, FIG. 4) was “showed the efficacy of the improvement of walking ability in a dose-dependent manner; also recorded: effective in improving walking ability”. Moreover, the “histopathology evaluation of the joints” value in test [5] (autopsy 3 months after single intra-articular administration, FIG. 7) was “dose-related histopathological improvement”. In addition, in test [5] (single administration, summary of Examples 4 to 6), the improving cartilage structure entry was “effective in improving cartilage structure”. The “prevention of TNF-α-induced apoptosis” value in test [6] is “prevented TNF-α-induced apoptosis in human chondrocytes in a dose-dependent manner”.

With `C[C@H](NC(=O)C(=O)Nc1ccccc1C(C)(C)C)C(=O)N[C@@H](CC(=O)O)C(=O)COc1c(F)c(F)cc(F)c1F` [emricasan, N-(2-tert-butylphenyl)-2-oxoglycyl-N-[1(S)-(carboxymethyl)-2-oxo-3-(2,3,5,6-tetrafluorophenoxy)propyl]-L-alaninamide, reference compound], in test [2], the “bone marrow lesion (MRI score)” value is given as “improvement” and the “synovitis (MRI score)” value is “improvement”. Further, in test [4] (single intra-articular administration of 10 mg, FIG. 5), the “improvement of walking ability (lameness score), compared with nivocasan” value is “improvement of a walking ability similar to that of 10 mg of nivocasan”.

Values taken from patent US20230310412A1, “USE OF CASPASE INHIBITOR FOR ALLEVIATING OR TREATING OSTEOARTHRITIS” (LG CHEM, LTD., priority 2020, published 2023).
